Assay results from patent US7223797B2, “Meldonium salts, method of their preparation and pharmaceutical composition on their basis” (Joint Stock Company “Grindeks”, priority 2003, dated 2007).

Tests used:
[1] = Sample hygroscopicity test: H2O content before and after 24 hours at 100% humidity; format: physicochemical; conditions: for H2O content after 24 hours maintenance at 100% humidity: closed vessel over water; for H2O content after 24 hours maintenance at 100% humidity / Initial H2O content in the sample: Fischer titration; for Initial H2O content in the sample: before the test; for hygroscopicity (in words): qualitative statement
Procedure: Sample hygroscopicity was tested by H2O content determination before the test and after 24 hours maintenance at 100% humidity (keeping in a closed vessel over water). On such conditions, Meldonium absorbs 10% water (as to mass increase) during 24 hours. Water content was determined by titration by Fischer's method; in cases of syrup formation water content is determined by sample mass increase.

[2] = Thermal / storage stability; format: physicochemical; conditions: qualitative statement
[3] = humans; cited from earlier work
[4] = rats; cited from earlier work

| H2O content after 24 hours maintenance at 100% humidity [1] | Initial H2O content in the sample [1] | Sample mass increase due to absorbed water ([1]; 24 hours at 100% humidity) [%] | Compound | other results |
| --- | --- | --- | --- | --- |
| 17.0854% | 9,4824% |  | C[N+](C)(C)NCCC(=O)O.C[N+](C)(C)NCCC(=O)O.NCCS(=O)(=O)[O-].NCCS(=O)(=O)[O-].O.O.O [Meldonium 2-aminoethane sulfonate (taurate; 1:1; ×1.5H2O)] |  |
|  | 12.5% | 18 | C[N+](C)(C)NCCC(=O)O.NC(CC(=O)O)C(=O)[O-].O.O [Meldonium L-(+)-aspartate (1:1; ×2H2O)] |  |
|  | 15.8% | 18 | CN(CC(=O)O)C(=N)N.C[N+](C)(C)NCCC(=O)[O-].O.O.O [Meldonium creatinate (1:1; ×3H2O)] |  |
|  | 1.17% | 12 | C[N+](C)(C)NCCC(=O)O.O=C([O-])C(Cl)Cl [Meldonium dichloroacetate (1:1)] |  |
| remains unchanged | 0.18% |  | C[N+](C)(C)NCCC(=O)[O-].O=C(O)C=CC(=O)O [Meldonium fumarate (1:1)] |  |
| 13.4707% | 1.5136% |  | C[N+](C)(C)NCCC(=O)[O-].C[N+](C)(C)NCCC(=O)[O-].O=C(O)C=CC(=O)O [Meldonium fumarate (2:1)] |  |
|  |  |  | CC(O)C(=O)O.C[N+](C)(C)NCCC(=O)[O-] [Meldonium lactate (1:1)] | hygroscopicity (in words) [1]: hygroscopic |
|  | 9.45% |  | C[N+](C)(C)NCCC(=O)O.O.O.O=C([O-])CC(O)(CC(=O)[O-])C(=O)[O-].[Mg+2] [Meldonium magnesium citrate (1:1:1; ×2H2O)] | State of the sample after maintenance at 100% humidity ([1]; 24 hours at 100% humidity): the sample diffused |
|  | 10.1215% | 20 | C[N+](C)(C)NCCC(=O)[O-].O.O.O=C([O-])CCC(=O)[O-].[Mg+2] [Meldonium magnesium succinate (1:1:1; ×2H2O)] |  |
|  | 1.3595% | 18 | C[N+](C)(C)NCCC(=O)[O-].C[N+](C)(C)NCCC(=O)[O-].O=C(O)C=CC(=O)O [Meldonium maleate (2:1)] |  |
| 12.8% | 1.98% |  | C[N+](C)(C)NCCC(=O)[O-].O=C(O)C(O)C(O)C(O)C(O)C(=O)O (stereo not shown) [Meldonium mucate (galactarate; 1:1)] |  |
| 7.6830% | 3.0414% |  | C[N+](C)(C)NCCC(=O)[O-].C[N+](C)(C)NCCC(=O)[O-].O.O=C(O)C(O)C(O)C(O)C(O)C(=O)O (stereo not shown) [Meldonium mucate (galactarate; 2:1; ×H2O)] |  |
| remains unchanged | 0.3919% |  | C[N+](C)(C)NCCC(=O)[O-] [Meldonium orotate (1:1)] |  |
| 3.1211% | 0.1661% |  | C[N+](C)(C)NCCC(=O)O.O=C([O-])C(=O)O [Meldonium oxalate (1:1)] |  |
|  | 1.71% | 9 | C[N+](C)(C)NCCC(=O)O.O.O=C([O-])c1cc2ccccc2c(Cc2c(O)c(C(=O)O)cc3ccccc23)c1O [Meldonium pamoate (1:1; ×H2O)] |  |
| remains unchanged | 0.0762% |  | C[N+](C)(C)NCCC(=O)O.O=P([O-])(O)O [Meldonium phosphate (1:1)] |  |
|  | 1.4189% | 20 | C[N+](C)(C)NCCC(=O)O.O=S(=O)([O-])O [Meldonium sulfate (1:1)] |  |
|  | 0.313% | 11.8 | C[N+](C)(C)NCCC(=O)O.C[N+](C)(C)NCCC(=O)O.O=S(=O)([O-])[O-] [Meldonium sulfate (2:1)] |  |
|  |  |  | C[N+](C)(C)NCCC(=O)[O-] [Meldonium, 3-(2,2,2-trimethylhydrazinium) propionate] | stability (in words) [2]: not very stable; half-elimination period [3]: 4 to 10 h; half-elimination period compared with humans [4]: longer |
| 4.6844% | 0.387% |  | C[N+](C)(C)NCCC(=O)O.O=C([O-])C=CC(=O)O [Meldoniuma maleate (1:1)] |  |
|  |  |  | C[N+](C)(C)NCCC(=O)[O-] [anhydrous form of Meldonium, reference compound] | stability (in words) [2]: unstable; hygroscopicity (in words) [1]: extremely hygroscopic |
|  |  |  | Cl [hydrogen chloride, reference compound] | hygroscopicity (in words) [1]: hygroscopic |
|  |  |  | Meldonium sulfate | hygroscopicity (in words) [1]: hygroscopic |
|  |  |  | acetate [reference compound] | hygroscopicity (in words) [1]: hygroscopic |
|  |  |  | citrate | hygroscopicity (in words) [1]: hygroscopic |
